Assay results published in ChEMBL document CHEMBL1909046, “DrugMatrix in vitro pharmacology data”.
pIC50, pKi: −log10 of the molar value.

Columns and labels:
[1] = DRUGMATRIX: Phosphodiesterase PDE3 enzyme inhibition (substrate: [3H]cAMP + cAMP); assay type: tissue-based, Homo sapiens; conditions: platelet; Not Active = under 50% inhibition at 10 µM
[2] = molecular target: Sodium-dependent noradrenaline transporter (Homo sapiens, UniProt P23975); assay: DRUGMATRIX: Norepinephrine Transporter radioligand binding (ligand: [125I] RTI-55); assay type: cell membranes, MDCK, Membrane; conditions: Not Active = under 50% inhibition at 10 µM; for IC50: mdck
Carbonic anhydrase 2 = Carbonic anhydrase 2 (Homo sapiens, UniProt P00918); assay: DRUGMATRIX: Carbonic Anhydrase II enzyme inhibition (substrate: 4-Nitrophenyl acetate (4-NPA)); assay type: tissue-based, Erythrocyte; conditions: Not Active = under 50% inhibition at 10 µM; for IC50: erythrocyte
[3] = molecular target: T1, Amine oxidase [flavin-containing] A (Homo sapiens, UniProt P21397); assay: DRUGMATRIX: Monoamine Oxidase MAO-A enzyme inhibition (substrate: Kynuramine); design: species or system BTI-TN-5B1-4; conditions: Not Active = under 50% inhibition at 10 µM; for pIC50: read-out: IC50; for IC50: bti-tn-5b1-4
T1 sequence (P21397 whole entry): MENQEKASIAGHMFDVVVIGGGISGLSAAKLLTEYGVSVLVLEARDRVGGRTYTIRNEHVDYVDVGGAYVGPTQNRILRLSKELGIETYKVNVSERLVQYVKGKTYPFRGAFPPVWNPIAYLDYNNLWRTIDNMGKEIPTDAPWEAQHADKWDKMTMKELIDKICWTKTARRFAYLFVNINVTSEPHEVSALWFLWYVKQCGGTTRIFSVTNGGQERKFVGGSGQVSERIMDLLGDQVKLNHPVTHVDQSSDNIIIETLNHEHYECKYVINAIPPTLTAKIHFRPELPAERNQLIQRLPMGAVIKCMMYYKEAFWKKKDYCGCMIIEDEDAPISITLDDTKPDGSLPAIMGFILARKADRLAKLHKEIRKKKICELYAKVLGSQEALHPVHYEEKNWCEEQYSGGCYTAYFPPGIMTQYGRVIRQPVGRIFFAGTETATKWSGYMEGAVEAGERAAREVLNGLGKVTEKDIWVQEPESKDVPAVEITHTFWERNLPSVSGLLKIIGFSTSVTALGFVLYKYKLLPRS

[4] = molecular target: Beta-2 adrenergic receptor (Homo sapiens, UniProt P07550); assay: DRUGMATRIX: Adrenergic beta2 radioligand binding (ligand: [3H] CGP-12177); assay type: cell membranes, CHO, Membrane; conditions: cho; Not Active = under 50% inhibition at 10 µM
Chain of Beta-2 adrenergic receptor (P07550 whole entry): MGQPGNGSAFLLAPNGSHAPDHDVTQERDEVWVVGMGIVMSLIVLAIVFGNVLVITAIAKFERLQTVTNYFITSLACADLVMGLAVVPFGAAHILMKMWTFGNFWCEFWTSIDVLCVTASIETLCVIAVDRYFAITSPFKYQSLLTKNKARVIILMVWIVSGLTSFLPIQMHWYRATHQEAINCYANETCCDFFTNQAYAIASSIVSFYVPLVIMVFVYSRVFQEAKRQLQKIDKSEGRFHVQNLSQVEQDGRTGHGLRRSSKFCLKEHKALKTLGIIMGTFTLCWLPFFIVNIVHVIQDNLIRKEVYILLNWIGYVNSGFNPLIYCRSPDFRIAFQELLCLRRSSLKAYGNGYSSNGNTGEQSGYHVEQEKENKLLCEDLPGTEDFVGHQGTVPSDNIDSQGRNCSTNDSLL

Chain of Sodium-dependent noradrenaline transporter (P23975 whole entry): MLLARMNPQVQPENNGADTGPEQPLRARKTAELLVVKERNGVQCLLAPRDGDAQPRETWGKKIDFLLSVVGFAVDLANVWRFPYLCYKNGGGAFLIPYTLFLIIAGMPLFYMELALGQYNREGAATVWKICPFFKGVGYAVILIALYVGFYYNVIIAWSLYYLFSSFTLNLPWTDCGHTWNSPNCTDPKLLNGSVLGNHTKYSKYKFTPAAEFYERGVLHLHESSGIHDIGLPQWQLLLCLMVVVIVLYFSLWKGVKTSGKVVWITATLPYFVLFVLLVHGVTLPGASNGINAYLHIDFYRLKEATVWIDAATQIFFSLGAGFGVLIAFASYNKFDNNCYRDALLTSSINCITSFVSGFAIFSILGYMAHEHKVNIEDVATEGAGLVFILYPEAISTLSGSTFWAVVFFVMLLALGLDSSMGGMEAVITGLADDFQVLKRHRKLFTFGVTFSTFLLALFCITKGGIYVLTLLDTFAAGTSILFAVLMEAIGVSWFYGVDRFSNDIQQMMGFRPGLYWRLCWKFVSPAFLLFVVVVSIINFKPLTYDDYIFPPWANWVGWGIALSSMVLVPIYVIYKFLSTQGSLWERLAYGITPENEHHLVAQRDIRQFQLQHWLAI

Row | SMILES | IC50 [1] | Ki [1] | pIC50 ([2]; read-out: IC50) | pKi ([2]; read-out: Ki) | IC50 (Carbonic anhydrase 2) | pIC50 [3] | IC50 [4] | IC50 [2] | IC50 [3] | pIC50 (Carbonic anhydrase 2; read-out: IC50)
1 | CC(O)COC[C@H]1O[C@@H]2O[C@H]3[C@H](O)[C@@H](O)[C@@H](O[C@H]4[C@H](O)[C@@H](O)[C@@H](O[C@H]5[C@H](O)[C@@H](O)[C@@H](O[C@H]6[C@H](O)[C@@H](O)[C@@H](O[C@H]7[C@H](O)[C@@H](O)[C@@H](O[C@H]8[C@H](O)[C@@H](O)[C@@H](O[C@H]1[C@H](O)[C@H]2O)O[C@@H]8COCC(C)O)O[C@@H]7COCC(C)O)O[C@@H]6COCC(C)O)O[C@@H]5COCC(C)O)O[C@@H]4COCC(C)O)O[C@@H]3COCC(C)O (stereo partly drawn) [2-HYDROXYPROPYL-BETA-CYCLODEXTRIN] | Not Active | Not Active | 5.90 | 5.90 | Not Active | 6.78 | Not Active | – | – | –
2 | C[C@]12CC[C@@H]3c4ccc(O)cc4CC[C@H]3[C@@H]1C[C@@H](O)[C@@H]2O [ESTRIOL] | Not Active | Not Active | – | – | Not Active | – | Not Active | Not Active | Not Active | –
3 | O=C(O)P(=O)(O)O [FOSCARNET] | Not Active | Not Active | – | – | Not Active | – | Not Active | Not Active | Not Active | –
4 | CC1=NN(c2ccccc2)C(=O)C1 [EDARAVONE] | Not Active | Not Active | – | – | Not Active | – | Not Active | Not Active | Not Active | –
5 | CCCNC(C)C(=O)Nc1ccccc1C (stereo not drawn) [PRILOCAINE] | Not Active | Not Active | – | – | Not Active | – | Not Active | Not Active | Not Active | –
6 | C[C@@H]1C/C=C/C=C/C=C/C=C/[C@H](O[C@@H]2O[C@H](C)[C@@H](O)[C@H](N)[C@@H]2O)C[C@@H]2O[C@](O)(C[C@@H](O)C[C@H]3O[C@@H]3/C=C/C(=O)O1)C[C@H](O)[C@H]2C(=O)O [NATAMYCIN] | Not Active | Not Active | – | – | Not Active | – | Not Active | Not Active | Not Active | –
7 | C[C@H]1O[C@H](O[C@H]2[C@H](O)[C@@H](O)[C@@H](O[C@H]3[C@H](O)[C@@H](O)C(O)O[C@@H]3CO)O[C@@H]2CO)[C@H](O)[C@@H](O)[C@@H]1N[C@H]1C=C(CO)[C@@H](O)[C@H](O)[C@H]1O (stereo partly drawn) [ACARBOSE] | Not Active | Not Active | – | – | Not Active | – | Not Active | Not Active | Not Active | –
8 | CN(C)C(=N)NC(=N)N [METFORMIN] | Not Active | Not Active | – | – | Not Active | – | Not Active | Not Active | Not Active | –
9 | CCc1ccc(CCOc2ccc(CC3SC(=O)NC3=O)cc2)nc1 (stereo not drawn) [PIOGLITAZONE] | Not Active | Not Active | – | – | – | 4.46 | Not Active | Not Active | – | 6.94
10 | CN1CCN(C(c2ccccc2)c2ccccc2)CC1 [CYCLIZINE] | Not Active | Not Active | – | – | Not Active | – | Not Active | Not Active | Not Active | –
11 | Cn1c(=O)c2c(ncn2C)n(C)c1=O [CAFFEINE] | Not Active | Not Active | – | – | Not Active | – | Not Active | Not Active | Not Active | –
12 | COc1cc(OC)c(C(=O)CCCN2CCCC2)c(OC)c1 [BUFLOMEDIL] | Not Active | Not Active | – | – | Not Active | – | Not Active | Not Active | Not Active | –
13 | C[C@]12CC[C@H]3[C@@H](CCC4=CC(=O)CC[C@@H]43)[C@@H]1CC[C@@H]2O [NANDROLONE] | Not Active | Not Active | – | – | Not Active | – | Not Active | Not Active | Not Active | –
14 | CS(=O)(=O)Nc1ccc([N+](=O)[O-])cc1Oc1ccccc1 [NIMESULIDE] | Not Active | Not Active | – | – | Not Active | – | Not Active | Not Active | Not Active | –
15 | CN1CCC(=C2c3ccccc3CC(=O)c3sccc32)CC1 [KETOTIFEN] | Not Active | Not Active | – | – | Not Active | – | Not Active | Not Active | Not Active | –
16 | NC12CC3CC(CC(C3)C1)C2 [AMANTADINE] | Not Active | Not Active | – | – | Not Active | – | Not Active | Not Active | Not Active | –
17 | NC(=O)N1c2ccccc2CC(=O)c2ccccc21 [OXCARBAZEPINE] | Not Active | Not Active | – | – | Not Active | – | Not Active | Not Active | Not Active | –
